Assay results: patent publication US4873334A, “4,7-dihydropyrazolo(3,4-b) pyridine derivatives” (Shionogi & Co., Ltd., priority 1982, dated 1989)

Columns and labels:
[1] = tested on: Spontaneously Hypertensive Rats; assay: Antihypertensive action, tail-cuff systolic pressure in unanaesthetized SHR after i.p. administration; assay type: in vivo, Spontaneously Hypertensive Rats (female); conditions: 3 mg/kg intraperitoneally
Experimental: Female Spontaneously Hypertensive Rats(hereinafter referred to as SHR) with 160 mmHg of systolic pressure were employed without anaesthetization. The systolic pressure was, after SHRs were kept warm at 50° C. for 2 to 3 minutes, bloodlessly measured by the tail-cuff method [Japan J. Pharmacol., 28, 617 (1978)] using a Physiograph and an Electrosphygmomanometer (DMP-4B, PE-300, Narco Biosystems, Inc., Houston). Each compound was intraperitoneally administered to SHR at a dose of 3 mg per kilogramm. Antihypertensive action is shown in a maximal decrease of blood pressure, i.e. a maximum difference between systolic pressures after and before the administration of the test compound; along with which the duration period is also shown.

[2] = tested on: heart (coronary perfusate flow); assay: Coronary vasodilating action, perfusion flow change in isolated Langendorff-perfused heart; parameters: species or system Guinea pigs
Experimental: (§1) Guinea pigs with 400-800g of body weight were hit strongly on their heads and the cartoid artery of each Guinea pigs was cut down in order to make them bloodless. The heart was isolated and perfused with at a constant pressure (50 cm H2 O) by the Langendorff method [Basic Pharmacology & Therapeutics, 9(4), 181 (1981)]. Krebs-Ringer bicarbonate solution (27° C.) containing 0.5% defibrinated blood was employed as a perfusate, into which a mixed gas of 95% oxygen and 5% carbon dioxide was continuously introduced. The flowing perfusate was led into a drop counter, and the changes of the flow i.e. increase and decrease are regarded as the respective indications for coronary vasodilation and vasoconstriction. The isomeric contraction of apex and the number of drops of the coronary perfusate were recorded on a Recticorder (RJG 3006, Nihon Koden) by way of an F-D Pick-up (SB-IT, Nihon Koden). […] Coronary vasodilating action is shown in changes of the quantiy of the perfusate, and systole inhibitory action is shown in those of inotropic tension.

[3] = tested on: heart (contraction of apex); assay: Systole inhibitory action / negative inotropic action, contractile tension of isolated Langendorff-perfused heart; parameters: species or system Guinea pigs
Experimental: as §1

in vivo = conditions: mouse, female DS mice, intravenous
Experimental: In female DS mice (body weight: about 20g), LD50 value after the intravenous administration of the compounds was calculated by the Brownlee's up and down method [J. Am. Sat. As., 48, 262 (1953)].

SMILES | Duration of Effect ([1]; Table 1 (Part 1)) [h] | Maximum Hypotension ([1]; Table 1 (Part 1)) [mmHg] | Duration of Effect ([1]; Table 1 (Part 2)) [h] | Maximum decrease in systolic pressure ([1]; Table 1 (Part 2)) [mmHg] | Perfusion Flow Change ([2]; 0.1 μg, Table 1 (Part 2)) | Perfusion Flow Change ([2]; 0.1 μg, Table 2 (Part 1)) | Perfusion Flow Change ([2]; 1 μg, Table 2 (Part 1)) | Change of Contractile Tension ([3]; 0.1 μg, Table 1 (Part 2)) [%] | Change of Contractile Tension ([3]; 0.1 μg, Table 3 (Part 1)) [%] | Change of Contractile Tension ([3]; 1 μg, Table 3 (Part 1)) [%] | Perfusion Flow Change ([2]; 10 μg, Table 2 (Part 1)) | Change of Contractile Tension ([3]; 10 μg, Table 3 (Part 1)) [%] | LD50 (in vivo) [mg/kg]
COC(=O)C1=C(C)NC(C)=C(C(=O)OC)C1c1ccccc1[N+](=O)[O-] [(A), Nifedipine, reference compound] | 6 | 45 | 6 | 45 | +38% | +38% | +100% | -15 | -15 | -57 |  |  | 
COC(=O)C1=C(C)Nc2c(c(C3CCCC3)nn2C)C1c1cccc([N+](=O)[O-])c1 (centres unmarked) [(B-1), Methyl 3-cyclopentyl-1,6-dimethyl-4-(3-nitrophenyl)-4,7-dihydropyrazolo[3,4-b]pyridine-5-carboxylate] | 16 | 66 |  |  |  | +26% | +73% |  | 0 | 0 | +180% | 0 | 31.5
COCCOC(=O)C1=C(C)Nc2c(c(C3CCCC3)nn2C)C1c1ccccc1[N+](=O)[O-] (centres unmarked) [(B-2), 2-Methoxyethyl 3-cyclopentyl-1,6-dimethyl-4-(2-nitrophenyl)-4,7-dihydropyrazolo[3,4-b]pyridine-5-carboxylate] |  |  | 6 | 45 | +28% |  |  | 0 |  |  |  |  | 
CCOC(=O)C1=C(C)Nc2c(c(C3CCCC3)nn2C)C1c1cccc([N+](=O)[O-])c1.Cl (centres unmarked) [(C-1), Ethyl 3-cyclopentyl-1,6-dimethyl-4-(3-nitrophenyl)-4,7-dihydropyrazolo[3,4-b]pyridine-5-carboxylate hydrochloride] | 14 | 42 |  |  |  | +40% | +79% |  | 0 | 0 | +93% | 0 | 50.6
COCCOC(=O)C1=C(C)Nc2c(c(C3CCCC3)nn2C)C1c1cccc([N+](=O)[O-])c1 (centres unmarked) [(C-2), 2-Methoxyethyl 3-cyclopentyl-1,6-dimethyl-4-(3-nitrophenyl)-4,7-dihydropyrazolo[3,4-b]pyridine-5-carboxylate] |  |  | 6 | 36 | +15% |  |  | 0 |  |  |  |  | 
COCCOC(=O)C1=C(C)Nc2c(c(C3CCCCC3)nn2C)C1c1ccccc1[N+](=O)[O-] (centres unmarked) [(D), 2-Methoxyethyl 3-cyclohexyl-1,6-dimethyl-4-(2-nitrophenyl)-4,7-dihydropyrazolo[3,4-b]pyridine-5-carboxylate] |  |  | 6 | 65 | +32% |  |  | 0 |  |  |  |  | 
COCCOC(=O)C1=C(C)Nc2c(c(CC3CCCC3)nn2C)C1c1ccccc1[N+](=O)[O-] (centres unmarked) [(E), 2-Methoxyethyl 3-cyclopentylmethyl-1,6-dimethyl-4-(2-nitrophenyl)-4,7-dihydropyrazolo[3,4-b]pyridine-5-carboxylate] |  |  | 6 | 26 | +20% |  |  | 0 |  |  |  |  | 
CC1=C(C(=O)OCCCOC(C)C)C(c2ccccc2[N+](=O)[O-])c2c(C3CCCC3)nn(C)c2N1 (centres unmarked) [(F), 3-Isopropoxypropyl 3-cyclopentyl-1,6-dimethyl-4-(2-nitrophenyl)-4,7-dihydropyrazolo[3,4-b]pyridine-5-carboxylate] |  |  | 6 | 53 | +65% |  |  | 0 |  |  |  |  | 
CC1=C(C(=O)OCCOC2CCCC2)C(c2ccccc2[N+](=O)[O-])c2c(C3CCCC3)nn(C)c2N1 (centres unmarked) [(G), 2-Cyclopentyloxyethyl 3-cyclopentyl-1,6-dimethyl-4-(2-nitrophenyl)-4,7-dihydropyrazolo[3,4-b]pyridine-5-carboxylate] |  |  | 6 | 53 | +67% |  |  | 0 |  |  |  |  | 
CC1=C(C(=O)OCC2CCCO2)C(c2ccccc2[N+](=O)[O-])c2c(C3CCCC3)nn(C)c2N1 (centres unmarked) [(H), 2-Tetrahydrofurylmethyl 3-cyclopentyl-1,6-dimethyl-4-(2-nitrophenyl)-4,7-dihydropyrazolo[3,4-b]pyridine-5-carboxylate] |  |  |  | 0 | +34% |  |  | 0 |  |  |  |  | 
CC1=C(C(=O)OCCOc2ccccc2)C(c2ccccc2[N+](=O)[O-])c2c(C3CCCC3)nn(C)c2N1 (centres unmarked) [(I), 2-Phenoxyethyl 3-cyclopentyl-1,6-dimethyl-4-(2-nitrophenyl)-4,7-dihydropyrazolo[3,4-b]pyridine-5-carboxylate] |  |  | 6 | 74 | +43% |  |  | 0 |  |  |  |  | 
CSCCOC(=O)C1=C(C)Nc2c(c(C3CCCC3)nn2C)C1c1ccccc1[N+](=O)[O-] (centres unmarked) [(J), 2-Methylthioethyl 3-cyclopentyl-1,6-dimethyl-4-(2-nitrophenyl)-4,7-dihydropyrazolo[3,4-b]pyridine-5-carboxylate] |  |  | 6 | 20 | +68% |  |  | 0 |  |  |  |  | 
CC1=C(C(=O)OCCc2ccccc2)C(c2ccccc2[N+](=O)[O-])c2c(C3CCCC3)nn(C)c2N1 (centres unmarked) [(K), Phenethyl 3-cyclopentyl-1,6-dimethyl-4-(2-nitrophenyl)-4,7-dihydropyrazolo[3,4-b]pyridine-5-carboxylate] |  |  | 6 | 75 | +63% |  |  | 0 |  |  |  |  | 
CC1=C(C(=O)OCCc2ccc(Cl)cc2)C(c2cccc([N+](=O)[O-])c2)c2c(C3CCCC3)nn(C)c2N1 (centres unmarked) [(L), 4-Chlorophenethyl 3-cyclopentyl-1,6-dimethyl-4-(3-nitrophenyl)-4,7-dihydropyrazolo[3,4-b]pyridine-5-carboxylate] |  |  | 6 | 74 |  |  |  |  |  |  |  |  | 
COc1ccc(CCOC(=O)C2=C(C)Nc3c(c(C4CCCC4)nn3C)C2c2cccc([N+](=O)[O-])c2)cc1OC (centres unmarked) [(M), 3,4-Dimethoxyphenethyl 3-cyclopentyl-1,6-dimethyl-4-(3-nitrophenyl)-4,7-dihydropyrazolo[3,4-b]pyridine-5-carboxylate] |  |  | 6 | 86 |  |  |  |  |  |  |  |  | 
